Where two headings read alike, the source gives them in different places.
Columns and labels:
HepG2 cell = assay: Cellular lipid-lowering level detection (oleic acid-induced cellular hyperlipidemia model, triglyceride content); type: cell-based, human; conditions: HepG2 cells, drug treatment 24 h
Method: The lipid-lowering ability at the cellular level was confirmed by detecting triglyceride levels of hyperlipidemia cells to determine whether the compounds have the ability to improve hyperlipidemia at the cellular level (J. Med. Chem. 2021, 64(5), 2815-2828). This experiment adopted a human liver cancer cell, HepG2 cell. After a cellular hyperlipidemia model was induced by oleic acid, the cells were incubated and treated with a drug for 24 h. Then, the cells were lysed by ultrasonication, and the content of triglyceride was detected according to the instructions of a triglyceride kit.

FIH = FIH (Homo sapiens (Human), UniProt Q9NWT6); assay: Inhibitory activities of compounds on FIH, fluorescence polarization (FP assay); type: binding
FIH, sequence (Q9NWT6 whole entry): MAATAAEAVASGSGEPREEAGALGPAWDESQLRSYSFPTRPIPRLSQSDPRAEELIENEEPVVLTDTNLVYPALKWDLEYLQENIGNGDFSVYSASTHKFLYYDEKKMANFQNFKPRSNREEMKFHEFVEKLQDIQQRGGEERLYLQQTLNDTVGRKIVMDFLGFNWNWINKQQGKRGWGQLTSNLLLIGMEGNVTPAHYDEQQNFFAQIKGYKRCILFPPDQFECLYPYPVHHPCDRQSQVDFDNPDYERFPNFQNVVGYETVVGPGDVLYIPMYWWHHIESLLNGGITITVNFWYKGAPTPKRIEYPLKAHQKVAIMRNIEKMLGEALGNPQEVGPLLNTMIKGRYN
Method: The compounds were serially diluted in an assay buffer to 12 concentration gradients, and then 20 μL of diluted 300 nM FIH protein was added to each well. […] The plate was incubated at room temperature for 1 h and scanned with a Synergy plate reader. The excitation wavelength was set to 485 nm, and the emission wavelength was set to 535 nm. […] The obtained data were imported into Graphpad prism 8.0 for analysis and fit to obtain IC50 values.

[1] = FP competition with FITC-HIF-1α 788-822, Table 1, read-out: FIH IC50
[2] = Table 2, comparison compounds, read-out: FIH (IC50 nM), compound where position 5 of pyridine is linked to other structures

SMILES	Whether or not it can improve cellular hyperlipidemia (HepG2 cell)	IC50 (FIH; [1]) [nM]	IC50 (FIH; [2]) [nM]
O=C(O)CNC(=O)c1ncc(-c2cccc(Cl)c2)cc1O [AKB-6548, reference compound]	No	–	–
O=C(O)CNC(=O)c1ncc(-c2cc(-c3ccccc3)no2)cc1O [Compound I-1, 3-Hydroxy-5-(3-phenylisoxazol-5-yl)picolinoyl glycine]	Yes	–	–
Cc1cccc(-c2cc(-c3cnc(C(=O)NCC(=O)O)c(O)c3)on2)c1 [Compound I-2, 3-Hydroxy-5-(3-m-tolylisoxazol-5-yl)picolinoyl glycine]	Yes	–	–
O=C(O)CNC(=O)c1ncc(-c2cc(-c3ccc(-c4ccccc4)cc3)no2)cc1O [Compound I-3, 3-Hydroxy-5-(3-biphenylisoxazol-5-yl)picolinoyl glycine]	Yes	–	–
COc1cccc(-c2cc(-c3cnc(C(=O)NCC(=O)O)c(O)c3)on2)c1 [Compound I-4, 3-Hydroxy-5-(3-m-methoxyphenylisoxazol-5-yl)picolinoyl glycine]	Yes	–	–
O=C(O)CNC(=O)c1ncc(-c2cc(-c3cccc(Cl)c3)no2)cc1O [Compound I-5, 3-Hydroxy-5-(3-m-chlorophenylisoxazol-5-yl)picolinoyl glycine]	Yes	–	–
O=C(O)CNC(=O)c1ncc(-c2cc(-c3cccc(Br)c3)no2)cc1O [Compound I-6, 3-Hydroxy-5-(3-m-bromophenylisoxazol-5-yl)picolinoyl glycine]	Yes	–	–
O=C(O)CNC(=O)c1ncc(-c2cc(C3CCCCC3)no2)cc1O [Compound I-7, 3-Hydroxy-5-(3-cyclohexylisoxazol-5-yl)picolinoyl glycine]	Yes	–	–
O=C(O)CNC(=O)c1ncc(-c2cc(C3CC3)no2)cc1O [Compound I-8, 3-Hydroxy-5-(3-cyclopropylisoxazol-5-yl)picolinoyl glycine]	Yes	–	–
N#Cc1cccc(-c2cc(-c3cnc(C(=O)NCC(=O)O)c(O)c3)on2)c1 [Compound I-9, 3-Hydroxy-5-(3-m-cyanophenylisoxazol-5-yl)picolinoyl glycine]	Yes	–	–
O=C(O)CNC(=O)c1ncc(-c2cc(-c3cccc(C(F)(F)F)c3)no2)cc1O [Compound I-10, 3-Hydroxy-5-(3-m-trifluoromethylphenylisoxazol-5-yl)picolinoyl glycine]	Yes	–	–
O=C(O)CNC(=O)c1ncc(-c2cc(-c3cccc4ccccc34)no2)cc1O [Compound I-11, 3-Hydroxy-5-(3-(naphthyl-1-yl)isoxazol-5-yl)picolinoyl glycine]	Yes	–	–
O=C(O)CNC(=O)c1ncc(-c2cc(-c3ccc4ccccc4c3)no2)cc1O [Compound I-12, 3-Hydroxy-5-(3-(naphthyl-2-yl)isoxazol-5-yl)picolinoyl glycine]	Yes	–	–
Cc1ccccc1-c1cc(-c2cnc(C(=O)NCC(=O)O)c(O)c2)on1 [Compound I-13, 3-Hydroxy-5-(3-o-tolylisoxazol-5-yl)picolinoyl glycine]	Yes	–	–
Cc1ccc(-c2cc(-c3cnc(C(=O)NCC(=O)O)c(O)c3)on2)cc1 [Compound I-14, 3-Hydroxy-5-(3-p-tolylisoxazol-5-yl)picolinoyl glycine]	Yes	–	–
Cc1cc(C)cc(-c2cc(-c3cnc(C(=O)NCC(=O)O)c(O)c3)on2)c1 [Compound I-15, 3-Hydroxy-5-(3-m-dimethylphenylisoxazol-5-yl)picolinoyl glycine]	Yes	–	–
O=C(O)CNC(=O)c1ncc(-c2cc(-c3cccc(F)c3)no2)cc1O [Compound I-16, 3-Hydroxy-5-(3-m-fluorophenylisoxazol-5-yl)picolinoyl glycine]	Yes	–	–
O=C(O)CNC(=O)c1ncc(-c2cc(-c3ccccc3Cl)no2)cc1O [Compound I-17, 3-Hydroxy-5-(3-o-chlorophenylisoxazol-5-yl)picolinoyl glycine]	Yes	–	–
O=C(O)CNC(=O)c1ncc(-c2cc(-c3ccc(Cl)cc3)no2)cc1O [Compound I-18, 3-Hydroxy-5-(3-p-chlorophenylisoxazol-5-yl)picolinoyl glycine]	Yes	–	–

SMILES	Whether or not it can improve cellular hyperlipidemia (HepG2 cell)	IC50 (FIH; [1]) [nM]	IC50 (FIH; [2]) [nM]
O=C(O)CNC(=O)c1ncc(-c2cc(-c3cc(Cl)cc(Cl)c3)no2)cc1O [Compound I-19, 3-Hydroxy-5-(3-m-dichlorophenylisoxazol-5-yl)picolinoyl glycine]	Yes	–	–
O=C(O)CNC(=O)c1ncc(-c2cc(-c3ccccc3Br)no2)cc1O [Compound I-20, 3-Hydroxy-5-(3-o-bromophenylisoxazol-5-yl)picolinoyl glycine]	Yes	–	–
O=C(O)CNC(=O)c1ncc(-c2cc(-c3ccc(Br)cc3)no2)cc1O [Compound I-21, 3-Hydroxy-5-(3-p-bromophenylisoxazol-5-yl)picolinoyl glycine]	Yes	–	–
O=C(O)CNC(=O)c1ncc(-c2cc(-c3ccccc3C(F)(F)F)no2)cc1O [Compound I-22, 3-Hydroxy-5-(3-o-trifluoromethylphenylisoxazol-5-yl)picolinoyl glycine]	Yes	–	–
O=C(O)CNC(=O)c1ncc(-c2cc(-c3ccc(C(F)(F)F)cc3)no2)cc1O [Compound I-23, 3-Hydroxy-5-(3-p-trifluoromethylphenylisoxazol-5-yl)picolinoyl glycine]	Yes	–	–
O=C(O)CNC(=O)c1ncc(-c2cc(-c3ccccc3F)no2)cc1O [Compound I-24, 3-Hydroxy-5-(3-o-fluorophenylisoxazol-5-yl)picolinoyl glycine]	Yes	799 ± 8.6	–
O=C(O)CNC(=O)c1ncc(-c2cc(-c3ccc(F)cc3)no2)cc1O [Compound I-25, 3-Hydroxy-5-(3-p-fluorophenylisoxazol-5-yl)picolinoyl glycine]	Yes	540 ± 1.8	–
O=C(O)CNC(=O)c1ncc(-c2cc(-c3cc(F)cc(F)c3)no2)cc1O [Compound I-26, 3-Hydroxy-5-(3-m-difluorophenylisoxazol-5-yl)picolinoyl glycine]	Yes	–	–
CC(C)(C)c1cccc(-c2cc(-c3cnc(C(=O)NCC(=O)O)c(O)c3)on2)c1 [Compound I-27, 3-Hydroxy-5-(3-m-tert-butylphenylisoxazol 5-yl)picolinoyl glycine]	Yes	782 ± 9.6	–
Cc1nc(C(=O)NCC(=O)O)c(O)cc1-c1cc(-c2ccccc2)no1 [Compound I-28, 3-Hydroxy-5-(3-phenylisoxazol-5-yl)-6-methylpicolinoyl glycine]	Yes	991 ± 12.3	–
Cc1c(-c2ccccc2)noc1-c1cnc(C(=O)NCC(=O)O)c(O)c1 [Compound I-29, 3-Hydroxy-5-(4-methyl-3-phenylisoxazol-5-yl)picolinoyl glycine]	Yes	1010 ± 25.1	–
CC(C)(C)c1c(-c2ccccc2)noc1-c1cnc(C(=O)NCC(=O)O)c(O)c1 [Compound I-30, 3-Hydroxy-5-(4-tert-butyl-3-phenylisoxazol-5-yl)picolinoyl glycine]	Yes	1210 ± 22.9	–
O=C(O)CNC(=O)c1ncc(-c2onc(-c3ccccc3)c2C2CC2)cc1O [Compound I-31, 3-Hydroxy-5-(4-cyclopropyl-3-phenylisoxazol-5-yl)picolinoyl glycine]	Yes	1920 ± 14.5	–
O=C(O)CNC(=O)c1ncc(-c2onc(-c3ccccc3)c2C2CCCCC2)cc1O [Compound I-32, 3-Hydroxy-5-(4-cyclohexyl-3-phenylisoxazol-5-yl) picolinoyl glycine]	Yes	998 ± 10.9	–
O=C(O)CNC(=O)c1ncc(-c2onc(-c3ccccc3)c2-c2ccccc2)cc1O [Compound I-33, 3-Hydroxy-5-(3,4-diphenylisoxazol-5-yl)picolinoyl glycine]	Yes	787 ± 9.5	–
O=C(O)CNC(=O)c1ncc(-c2cn(-c3ccccc3)nn2)cc1O [reference compound]	–	–	19590 ± 43.8
O=C(O)CNC(=O)c1ncc(-c2cc(-c3ccccc3)co2)cc1O [reference compound]	–	–	9024 ± 36.1
O=C(O)CNC(=O)c1ncc(-c2cc(-c3ccccc3)n[nH]2)cc1O [reference compound]	–	–	22250 ± 56.3
